Measured values published in patent US20260152487A1 (Sitryx Therapeutics Limited, priority 2021, published 2026).
Where two headings read alike, the source gives them in different places.

Target: T1, recombinant human PKM2 (Homo sapiens, UniProt P14618)
T1 construct: His (N); purchased R&D Systems
Test: Human PKM2 activation assay (Kinase-Glo Plus luminescent detection of generated ATP)
Type: biochemical
Details: for Emax: read-out: hPKM2 Emax; for EC50: 4-parameter logistic fit
Procedure, shortened: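 Luminescent ATP detection (Kinase-Glo Plus, 15 min, 26 °C) followed a 60 min, 26 °C shaken reaction of compound with […] His-tagged human PKM2, PEP and ADP in imidazole/KCl/MgCl2 buffer with Tween20 and BSA, pH 7.2.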

[1] = percentage activation normalised to DMSO vehicle (LOW) and 5 μM TEPP-46 (HIGH)
[2] = recombinant human PKM2 activation, read-out: hPKM2 EC50

T1 sequence (P14618 2-531 limits assumed): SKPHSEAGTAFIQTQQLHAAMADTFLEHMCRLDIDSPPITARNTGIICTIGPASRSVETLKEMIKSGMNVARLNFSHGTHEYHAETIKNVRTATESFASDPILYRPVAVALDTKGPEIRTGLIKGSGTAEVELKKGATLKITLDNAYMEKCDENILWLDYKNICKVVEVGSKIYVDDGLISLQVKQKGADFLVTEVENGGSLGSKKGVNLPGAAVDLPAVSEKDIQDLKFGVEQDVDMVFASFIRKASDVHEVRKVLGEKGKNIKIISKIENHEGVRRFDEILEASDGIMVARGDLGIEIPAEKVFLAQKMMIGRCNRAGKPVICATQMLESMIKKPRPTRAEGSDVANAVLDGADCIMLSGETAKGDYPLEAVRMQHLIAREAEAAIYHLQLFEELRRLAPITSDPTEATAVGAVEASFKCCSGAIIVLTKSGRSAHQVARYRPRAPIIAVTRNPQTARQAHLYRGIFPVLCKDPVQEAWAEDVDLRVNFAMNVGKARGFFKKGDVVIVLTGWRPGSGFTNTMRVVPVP

For Cn1ccc(Cn2ncc3cc(S(=O)(=O)c4cnn(CCO)c4)ccc3c2=O)n1 [Example 264, 6-((1-(2-hydroxyethyl)-1H-pyrazol-4-yl)sulfonyl)-2-((1-methyl-1H-pyrazol-3-yl)methyl)phthalazin-1(2H)-one], the Emax [1] was 94.6% and the EC50 [2] was 204 nM.

With Cc1cccc(Cn2ncc3cc(S(=O)(=O)c4csc(C(C)O)n4)ccc3c2=O)n1 (stereo not drawn) [Example 282, 6-((2-(1-hydroxyethyl)thiazol-4-yl)sulfonyl)-2-((6-methylpyridin-2-yl)methyl)phthalazin-1(2H)-one] the Emax [1] was 109% and the EC50 [2] was 155 nM.

Work on COc1ccc(Cn2ncc3cc([S@@](=N)(=O)c4ccc(OC(F)F)cc4)ccc3c2=O)cn1 (single isomer, unassigned) [Example 136] yielded an Emax [1] of 97.2% and an EC50 [2] of 46.5 nM.

Molecule Cc1cccc(Cn2ncc3cc(S(=O)(=O)c4cnn(C)c4)ccc3c2=O)n1 [Example 204, 6-((1-methyl-1H-pyrazol-4-yl)sulfonyl)-2-((6-methylpyridin-2-yl)methyl)phthalazin-1(2H)-one] has an Emax [1] of 122% and an EC50 [2] of 282 nM.

Cn1ccc(S(=O)(=O)c2ccc3c(=O)n(Cc4cccc(OC(F)F)c4)ncc3c2)n1 [Example 198, 2-(3-(difluoromethoxy)benzyl)-6-((1-methyl-1H-pyrazol-3-yl)sulfonyl)phthalazin-1(2H)-one] was tested, and the Emax [1] was 74% and the EC50 [2] was 100 nM.

COc1cnc(Cn2ncc3cc(S(=O)(=O)c4ccccc4)ccc3c2=O)cn1 [Example 87, 2-((5-methoxypyrazin-2-yl)methyl)-6-(phenylsulfonyl)phthalazin-1(2H)-one] was tested, and the Emax [1] was 85.8% and the EC50 [2] was 475 nM.

With COc1ccc(Cn2ncc3cc(S(=O)(=O)c4cc(C)ns4)ccc3c2=O)cn1 [Example 148, 2-((6-methoxypyridin-3-yl)methyl)-6-(3-methylisothiazol-5-ylsulfonyl)phthalazin-1(2H)-one] the Emax [1] was 71.3% and the EC50 [2] was 58.4 nM.

With COc1ccc(Cn2ncc3cc(S(=O)(=O)c4ccccc4Cl)ccc3c2=O)cn1 [Example 163, 6-(2-chlorophenylsulfonyl)-2-((6-methoxypyridin-3-yl)methyl)phthalazin-1(2H)-one] the Emax [1] was 77.3% and the EC50 [2] was 135 nM.

Work on COc1ccc(Cn2ncc3cc(S(=O)(=O)c4cnn(C)c4)ccc3c2=O)cn1 [Example 168, 2-((6-methoxypyridin-3-yl)methyl)-6-((1-methyl-1H-pyrazol-4-yl)sulfonyl)phthalazin-1(2H)-one] yielded an Emax [1] of 96% and an EC50 [2] of 103 nM.

For NC(=O)c1c(Cl)cccc1Cn1ncc2cc(S(=O)(=O)c3ccccc3)ccc2c1=O [Example 91, 2-chloro-6-((1-oxo-6-(phenylsulfonyl)phthalazin-2(1H)-yl)methyl)benzamide], the Emax [1] was 89.9% and the EC50 [2] was 554 nM.

With O=c1c2ccc(S(=O)(=O)c3ccccc3)c(NCCO)c2cnn1Cc1cccnc1O [Example 247, 5-((2-hydroxyethyl)amino)-2-((2-hydroxypyridin-3-yl)methyl)-6-(phenylsulfonyl)phthalazin-1(2H)-one] the Emax [1] was 103% and the EC50 [2] was 252 nM.

For COc1ccc(Cn2ncc3cc(S(=O)(=O)c4ccc(OC(F)F)nc4)ccc3c2=O)cn1 [Example 124, 6-((6-(difluoromethoxy)pyridin-3-yl)sulfonyl)-2-((6-methoxypyridin-3-yl)methyl)phthalazin-1(2H)-one], the Emax [1] was 107% and the EC50 [2] was 31.3 nM.

COc1ccc(F)c(Cn2ncc3cc(S(=O)(=O)c4cc[nH]n4)ccc3c2=O)n1 [Example 329] was tested, and the Emax [1] was 98.5% and the EC50 [2] was 232 nM.

Molecule Cc1c(Cn2ncc3cc(S(=O)(=O)c4cnn(C)c4)ccc3c2=O)nn2c1OCC2 [Example 355] has an Emax [1] of 101% and an EC50 [2] of 39.4 nM.

In the case of COc1ccc(Cn2ncc3cc(S(=O)(=O)c4cccc(C)n4)ccc3c2=O)cn1 [Example 169, 2-((6-methoxypyridin-3-yl)methyl)-6-(6-methylpyridin-2-ylsulfonyl)phthalazin-1(2H)-one], the Emax [1] is reported as 83% and the EC50 [2] is reported as 185 nM.

In the case of COc1ccc(Cn2ncc3cc(S(=O)(=O)c4ccc(OC(F)F)cc4)ccc3c2=O)cn1 [Example 153, 6-(4-(difluoromethoxy)phenylsulfonyl)-2-((6-methoxypyridin-3-yl)methyl)phthalazin-1(2H)-one], the Emax [1] is reported as 77.2% and the EC50 [2] is reported as 15.7 nM.

Cn1ccc(Cn2ncc3cc(S(=O)(=O)c4ccccc4)cnc3c2=O)n1 [Example 250, 7-((1-methyl-1H-pyrazol-3-yl)methyl)-3-(phenylsulfonyl)pyrido[2,3-d]pyridazin-8(7H)-one] was tested, and the Emax [1] was 92.4% and the EC50 [2] was 398 nM.

Molecule O=c1c2ccc(S(=O)(=O)c3ccccc3)cc2cnn1Cc1ccn(C2COC2)n1 [Example 273, 2-((1-(oxetan-3-yl)-1H-pyrazol-3-yl)methyl)-6-(phenylsulfonyl)phthalazin-1(2H)-one] has an Emax [1] of 112% and an EC50 [2] of 457 nM.

In the case of COc1ccc(Cn2ncc3cc(S(=O)(=O)c4cn[nH]c4)ccc3c2=O)cn1 [Example 197, 6-((1H-pyrazol-4-yl)sulfonyl)-2-((6-methoxypyridin-3-yl)methyl)phthalazin-1(2H)-one], the EC50 (hPKM2 EC50, recombinant human PKM2 activation) is reported as 153 nM and the Emax is reported as 94.5%.

Molecule O=c1c2ccc(S(=O)(=O)c3ccccc3)cc2cnn1Cc1cc(C2CC2)[nH]n1 [Example 25, 2-((5-cyclopropyl-1H-pyrazol-3-yl)methyl)-6-(phenylsulfonyl)phthalazin-1(2H)-one] has an Emax [1] of 126% and an EC50 [2] of 198 nM.

In the case of Cc1cc(Cn2ncc3cc(S(=O)(=O)c4cn[nH]c4)ncc3c2=O)n[nH]1 [Example 300, 7-((1H-pyrazol-4-yl)sulfonyl)-3-((5-methyl-1H-pyrazol-3-yl)methyl)pyrido[3,4-d]pyridazin-4(3H)-one], the Emax [1] is reported as 93.2% and the EC50 [2] is reported as 99 nM.

For O=c1c2ccc(S(=O)(=O)c3cn[nH]c3)cc2cnn1Cc1cnc2c(c1)CCO2 [Example 293, 6-(1H-pyrazol-4-ylsulfonyl)-2-((2,3-dihydrofuro[2,3-b]pyridin-5-yl)methyl)phthalazin-1(2H)-one], the Emax [1] was 67.5% and the EC50 [2] was 858 nM.

With COc1ccc(Cn2ncc3cc(S(=O)(=O)c4csc(C)n4)ccc3c2=O)cn1 [Example 174, 2-((6-methoxypyridin-3-yl)methyl)-6-(2-methylthiazol-4-ylsulfonyl)phthalazin-1(2H)-one] the Emax [1] was 94.2% and the EC50 [2] was 106 nM.

COc1ccc(S(=O)(=O)c2ccc3c(=O)n(Cc4ccncc4O)ncc3c2)cc1 [Example 105, 2-((3-hydroxypyridin-4-yl)methyl)-6-(4-methoxyphenylsulfonyl)phthalazin-1(2H)-one] showed an Emax [1] of 103% and an EC50 [2] of 813 nM.

Nc1cccc(Cn2ncc3cc(S(=O)(=O)c4ccc5c(c4)OCO5)ccc3c2=O)c1 [Example 152, 2-(3-aminobenzyl)-6-(benzo[d][1,3]dioxol-5-ylsulfonyl)phthalazin-1(2H)-one] gave an Emax [1] of 95.2% and an EC50 [2] of 19 nM.

Work on COc1cccc(Cn2ncc3cc(S(=O)(=O)c4ccccc4)ccc3c2=O)c1C(N)=O [Example 92, 2-methoxy-6-((1-oxo-6-(phenylsulfonyl)phthalazin-2(1H)-yl)methyl)benzamide] yielded an Emax [1] of 98.9% and an EC50 [2] of 158 nM.

In the case of COc1ccc(Cn2ncc3cc(S(=O)(=O)c4ccccc4F)ccc3c2=O)cn1 [Example 162, 6-(2-fluorophenylsulfonyl)-2-((6-methoxypyridin-3-yl)methyl)phthalazin-1(2H)-one], the Emax [1] is reported as 99.5% and the EC50 [2] is reported as 83.4 nM.
